Test results published in article PMC10906223 (JCI Insight, 2024).
Several values for one entry are separate records, joined by “and”; a condition that tells them apart may be missing. Identical values can stand only once.

How the values were obtained:
diabetic NOD mice [1] = experiment: Plasma glutamine in NOD mice; format: in vivo, mouse; details: WCDD301 group of NOD mice; quantity not given
Protocol: Terminal blood was collected into microfuge tubes containing K2-EDTA (supplemented by 45 mM phenylmethylsulphonyl fluoride and 0.77 μM aprotinin) through cardiac puncture. Plasma was separated by centrifugation (2,000g for 10 minutes at 4°C) and kept at –80°C until analysis. Plasma samples with hemolysis were excluded from the study. […] Values of BUN, creatinine, ALB, ALT, and AST were determined by a Roche Cobas C501 Autoanalyzer as performed by the Washington University Diabetes Research Center Translational Diagnostics Core. Reference intervals of blood chemistry parameters for inbred NOD mice were extracted from the Mouse Phenome Database (https://phenome.jax.org/).

[2] = system: dispersed islet cells of donors with T1D; experiment: Insulin secretion from dispersed islet cells of donors with T1D; format: cell-based, human; details: for Secretion of insulin: dispersed islet cells, T1D donors, one value per donor, Figure 2J;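 on Secretion of insulin: insulin concentration in collected medium by Lumit immunoassay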
Protocol: (§1) Pancreata of nondiabetic C57BL/6J mice were digested using collagenase P (Roche Diagnostics, catalog 11213873001), and islets were manually picked up using a stereomicroscope (ZEISS Stemi 305). […] Isolated mouse islets or provided human islets were dispersed as described ([28]). Briefly, 100–120 islets were washed 2 times using modified HBSS, then dispersed in 600 μL Accutase (Innovative Cell Technologies, catalog AT-104) by gently pipetting up and down for 7 minutes at 37°C. […] Following refreshing of KRBH, cells were dispensed in 8 microfuge tubes (2,000 cells/tube) and treated with WCDD301, preclustered Ephrin-A5 Fc, or preclustered Fc in the presence or absence of the competitive inhibitor of EphA4 receptor, rhyncophylline ([60]) (MilliporeSigma, catalog SML2345). In the presence or absence of these effectors, secretion assay was performed sequentially as shown in Supplemental Table 5. […] Preclustering of Ephrin-A5 Fc was done by mixing Ephrin-A5 Fc or Fc alone (BioLegend, catalog 790102) with anti-Fc antibody (Invitrogen, catalog A16086) (1:10 molar ratio) 20 minutes before treatment ([62]). […] Shedding of cleaved EphA4 was measured from the cell culture medium. Experiments were performed by dispersion of 200 islets, and EphA4 levels in media were measured by EphA4 ELISA (ABclonal, catalog RK06572).
The Integrated Islet Distribution Program provided us human donor islets with their characteristics (Supplemental Table 6). Islets were centrifuged at 500g for 3 minutes, resuspended in CMRL 1066 medium (Gibco, catalog 1150-037) containing 11 mM glucose, and rested in an incubator overnight.
For the hormone secretion assay, islets or dispersed islet cells were adapted in KRBH buffer containing 11 mM glucose for 1 hour. Then, after 2 washes in HBSS containing 11 mM glucose, islets or cells were treated in the following sequential order in the presence or absence of WCDD301: incubation in KRBH (1 mM glucose, 30 minutes) followed by medium collection, incubation in KRBH (11 mM glucose, 30 minutes) followed by medium collection.

[3] = Plasma stability assay, human plasma; format: in vitro ADME; details: for Ln (% Remaining): human plasma, 37°C, Figure 5A
Protocol: Pooled frozen plasma of CD-1 mice (n = 20; catalog MSE00PLK2M2N, Beijing Vital River Laboratory Animal Technology) or humans (n = 6, catalog […]2P2N, Bioreclamation IVT), equal numbers of males and females, was thawed in a 37°C water bath, and residual clots were removed by centrifugation (500g for 5 minutes). Plasma (98 μL) was aliquoted in each well of 96-well reaction plates using an Apricot automation workstation. WCDD301 (100 μM) or propantheline bromide (100 μM, as a positive control) was added (2 μL/well) to sets of wells assigned to blank or time points (T0, T10, T30, T60, and T120 minutes) and incubated at 37°C. At each time point, the reaction was stopped by adding stop solution (500 μL; a mixture of 200 ng/mL of tolbutamide and labetalol in acetonitrile), mixed thoroughly, sealed, shaken (20 minutes), and centrifuged (1,750g, 4°C, 20 minutes). A total of 150 μL of the supernatant from each well of the reaction plate was transferred to its corresponding bioanalysis plate for LC-MS/MS analysis. The remaining level (%) of the WCDD301 was calculated using the following equation: remaining (%) = (PAR at each time point/PAR at T0) × 100. PAR stands for the peak area ratio of the WCDD301 versus internal standard.

[4] = system: murine dispersed islet cells; experiment: Insulin secretion from murine dispersed islet cells; format: cell-based, mouse; details: for Relative secretion of insulin: one value per mouse
Protocol: as §1

diabetic NOD mice [5] = experiment: Daily food intake in NOD mice; format: in vivo, mouse; set-up: Daily food intake (Figure 7E): unit not given here; details: for Daily food intake (Figure 7E): Diabetic, WCDD301 treated
Protocol: We preweighed WCDD301 into microfuge tubes and reconstituted it using deionized water. Using a 10 μL pipette tip, we placed the calculated dose of WCDD301 (at the volume range of 1–1.5 μL) within the center of pearls. WCDD301 was placed into pearls 30–45 minutes before administration. For oral administration of pearls, we designed an applicator using a disposable plastic transfer pipette and syringe plunger lubricated with olive oil. Food intake and body weight in each experimental group (diabetic WCDD301-treated, diabetic placebo-treated, and nondiabetic placebo-treated NOD mice) were monitored daily for 4 weeks. Urine glucose was measured from individually caged NOD mice (nondiabetic placebo treated n = 2, diabetic placebo treated n = 2, and diabetic WCDD301 treated n = 4, 21–23 weeks old) with metabolic cages. Urine glucose was monitored every 24 hours for 10 days by semiquantitative measurements (P-STICKS, Millpledge Veterinary).

CC(=O)OCC(N)(COC(C)=O)COC(C)=O [WCDD301, 2-(acetoxymethyl)-2-aminopropane-1,3-diyl diacetate]
Plasma glutamine (Figure 7B) (diabetic NOD mice [1]): 0.7 and 0.74 and 0.65 and 0.71 | Effect on insulin secretion ([2]; dispersed islet cells from donors with long-standing T1D): no effect on the minimal residual insulin secretion | Secretion of insulin ([2]; 1 mM glucose): 0.0567 and 0.08 | Secretion of insulin ([2]; 11 mM glucose): 0.07 and 0.05 | half-life at 2 µM ([3]; both sexes, human, plasma): 4.82 h | Stability in human plasma versus mouse plasma ([3]; human higher than mouse): > 2.7 fold | Ln (% Remaining) ([3]; 10 min): -0.03128 | Ln (% Remaining) ([3]; 30 min): -0.148 | Ln (% Remaining) ([3]; 60 min): 0.05816 | Ln (% Remaining) ([3]; 120 min): 0.01827 | Relative secretion of insulin ([4]; 301 (1.5 µM), Glucose (1 mM), Figure 1G): 0.28 and 0.38 and 0.3 and 0.32 and 0.23 | Relative secretion of insulin ([4]; 301 (1.5 µM), Glucose (11 mM), Figure 1G): 1.22 and 1.05 and 0.8 and 0.98 and 1.49 | Relative secretion of insulin ([4]; 301 (3 µM), Glucose (1 mM), Figure 1G): 0.49 and 0.38 and 0.4 and 0.28 and 0.53 | Relative secretion of insulin ([4]; 301 (3 µM), Glucose (11 mM), Figure 1G): 0.67 and 1.1 and 0.98 and 1.25 and 0.63 | Effect on insulin secretion ([4]; Figure 1G): without significant effects | Effect on insulin secretion in presence of rhyncophylline ([4]; WCDD301 3 μM, Supplemental Figure 3): no significant effect on insulin secretion | Daily food intake (Figure 7E) (diabetic NOD mice [5]; Day 1): 188.5 and 161.1 and 187.4 and 162.1 | Daily food intake (Figure 7E) (diabetic NOD mice [5]; Day 2): 210.5 and 168.9 and 209.3 and 170 | Daily food intake (Figure 7E) (diabetic NOD mice [5]; Day 3): 184.2 and 168.9 and 183.1 and 170 | Daily food intake (Figure 7E) (diabetic NOD mice [5]; Day 4): 192.5 and 167.7 | Daily food intake (Figure 7E) (diabetic NOD mice [5]; Day 7): 203.2 and 168.3 and 202 and 169.4 | Daily food intake (Figure 7E) (diabetic NOD mice [5]; Day 8): 200 and 184.4 and 198.8 and 185.5 | Daily food intake (Figure 7E) (diabetic NOD mice [5]; Day 9): 226.3 and 184.4 and 225 and 185.5 | Daily food intake (Figure 7E) (diabetic NOD mice [5]; Day 10): 211.6 and 161.9 and 188.3 and 170.8 | Daily food intake (Figure 7E) (diabetic NOD mice [5]; Day 11): 185.1 and 169.8 and 210.3 and 170.8 | Daily food intake (Figure 7E) (diabetic NOD mice [5]; Day 12): 193.5 and 169.8 and 184 and 169.5 | Daily food intake (Figure 7E) (diabetic NOD mice [5]; Day 13): 182.7 and 168.5 and 192.3 and 160.2 | Daily food intake (Figure 7E) (diabetic NOD mice [5]; Day 14): 191.2 and 159.2 and 181.6 | Daily food intake (Figure 7E) (diabetic NOD mice [5]; Day 15): 204.2 and 190.1 and 190 and 170.2 | Daily food intake (Figure 7E) (diabetic NOD mice [5]; Day 16): 201 and 169.2 and 203 and 186.4 | Daily food intake (Figure 7E) (diabetic NOD mice [5]; Day 17): 227.4 and 185.3 and 199.8 and 186.4 | Daily food intake (Figure 7E) (diabetic NOD mice [5]; Day 18): 190.4 and 185.3 and 226.1 and 163.7 | Daily food intake (Figure 7E) (diabetic NOD mice [5]; Day 19): 212.6 and 162.7 and 189.2 and 171.7 | Daily food intake (Figure 7E) (diabetic NOD mice [5]; Day 20): 186.1 and 170.6 and 211.4 and 171.7 | Daily food intake (Figure 7E) (diabetic NOD mice [5]; Day 21): 194.4 and 170.6 and 184.9 and 170.4 | Daily food intake (Figure 7E) (diabetic NOD mice [5]; Day 22): 183.6 and 169.3 and 193.3 and 161 | Daily food intake (Figure 7E) (diabetic NOD mice [5]; Day 23): 192.1 and 160 and 182.5 and 192.2 | Daily food intake (Figure 7E) (diabetic NOD mice [5]; Day 24): 205.2 and 191 and 171 | Daily food intake (Figure 7E) (diabetic NOD mice [5]; Day 25): 202 and 170 and 204 and 187.3 | Daily food intake (Figure 7E) (diabetic NOD mice [5]; Day 26): 228.6 and 186.2 and 200.8 and 187.3 | Daily food intake (Figure 7E) (diabetic NOD mice [5]; Day 27): 177.9 and 175.1 and 174 and 179 | Daily food intake (Figure 7E) (diabetic NOD mice [5]; Day 28): 225.9 and 175.3 and 174.1 and 226.9 | Food intake, daily monitoring (diabetic NOD mice [5]; diabetic WCDD301-treated mice): phenotypes similar to nondiabetic placebo-treated mice
